Measured values taken from patent US20240238299A1, “USE OF PYRROLOPYRIMIDINE COMPOUND” (GUANGZHOU JOYO PHARMATECH CO., LTD, priority 2021, published 2024).
Where two headings read alike, the source gives them in different places.

Tests used:
[1] = tested on: NO secretion by BV-2 cell line; experiment: NO secretion by LPS/IFN-γ-activated BV-2 cells (Griess Reagent System); format: cell-based, Mouse; conditions: for IC50: Mus musculus, BV-2, 24 h co-incubation
Description: (§1) Step 1: BV-2 cells in the exponential growth phase were collected, and viable cells were counted using a Vi-Cell XR cell counter. The cell suspension was adjusted to an appropriate concentration with the culture medium. 160 μL of cell suspension was added to each well of a 96-well cell culture plate, resulting in a final cell concentration of 12,000 cells per well. The culture plate was incubated for 24 hours in a 37° C., 5% CO2 incubator.
(§2) Step 2: A 10 mM DMSO compound stock solution was diluted at a ratio of 1:4 using DMSO to prepare a series of 1000× test compound solutions. These 1000× test compound solutions were further diluted at a ratio of 1:100 using cell culture medium to prepare a series of 10× test compound solutions. Finally, the 96-well plate that had been plated with cells the day before was taken out. According to the experimental well plate loading design, 20 μL of the corresponding 10× solution was added to each well, with three duplicate wells for each drug concentration. The final concentrations of the test compounds used in the experiment (i.e., 1× solutions) have a range of 10, 2.5, 0.625, 0.156, 0.0391, 0.0098, and 0.0024 μM. The final DMSO concentration in each well was 0.1%.
(§3) After the compound was added, the 96-well plate was incubated for half an hour in the 37° C., 5% CO2 incubator.
(§4) After the pre-incubation was completed, 20 μL of culture medium containing 100 ng/mL LPS and 100 ng/mL IFN-γ (final concentrations of 10 ng/mL LPS and 10 ng/mL IFN-7) was added to each well to induce the activation of BV-2 cells. The culture plate was then incubated for 24 hours in the 37° C., 5% CO2 incubator.
(§5) Step 3: After 24 hours of treatment with the compound, the culture plate was centrifuged at 1200 rpm for 5 minutes. The supernatant was pipetted into another plate, which was sealed with tinfoil and stored at −20° C. for future ELISA and Griess reagent system assays. The cell culture plate from which the supernatant had been removed was immediately used for cell proliferation assays using the CellTiter-Glo (CTG) method.
(§6) Step 5 (NO and CCL5 detection): The CCL5 levels in the supernatant were detected using an ELISA kit (Mouse CCL5/RANTES DuoSet ELISA; R&D; DY478-05), following the instructions provided with the kit. The nitric oxide (NO) levels in the supernatant were detected using the Griess Reagent System (Promega; G2930), following the instructions provided with the kit.
(§7) Step 1: Firstly, the optical density values obtained from ELISA and Griess tests were used to plot a standard curve and calculate the absolute concentrations of each sample. The absolute concentration was then calibrated using the CTG fluorescence value corresponding to each sample to obtain the calibrated concentration. The formula for calculating the calibrated concentration was: calibrated concentration=absolute concentration/CTG fluorescence value of the same sample.
Step 2: Based on the calibrated concentration of each sample, the relative percentage of CCL5 or NO secretion (i.e., CCL5 production (%) or NO production (%)) at each test concentration relative to the blank (DMSO) group was calculated. The formula for calculating the relative percentage was: relative percentage %=(calibrated concentration of the test concentration group)/(calibrated concentration of the blank group).
Step 3: Finally, the relative percentage of CCL5 secretion or the relative percentage of NO secretion was plotted against the logarithm of the compound concentration. […]

[2] = tested on: mouse CCL5 secretion by BV-2 cell line; experiment: CCL5 secretion by LPS/IFN-γ-activated BV-2 cells (ELISA); format: cell-based
Description: as §1, §2, §3
as §4, with “incubator. […]” for “incubator.”
as §6, §7
Step 2: Based on the calibrated concentration of each sample, the relative percentage of CCL5 or NO secretion (i.e., CCL5 production (%) or NO production (%)) at each test concentration relative to the blank (DMSO) group was calculated. […]

BV-2 cells = experiment: CTG cell proliferation assay, LPS/IFN-γ-activated BV-2 cells; format: cell-based, Mouse
Description: as §1, §2, §3, §4, §5
Step 4: In the cell culture plate from which the supernatant had been removed, 100 μL of PBS was added to each well. According to the instructions of the CellTiter-Glo (CTG) kit, 50 μL of pre-melted and room-temperature balanced CTG solution was added to each well. The plate was then mixed for 2 minutes using a microplate shaker. After letting it stand at room temperature for 10 minutes, the fluorescence signal value was measured using an Envision 2104 plate reader.
Step 1: Using the CTG fluorescence signal values, the percentage of surviving cells (surviving cells %) at each test concentration relative to the blank (DMSO) group was calculated. The formula was: surviving cells %=fluorescence value of the test concentration group/fluorescence value of the blank group.
Step 2: the percentage of surviving cells was plotted against the logarithm of the compound concentration. Nonlinear regression was used to fit the curve, and the formula “log(inhibitor) vs. response—Variable slope” in the software GraphPad Prism 5 was employed to calculate the IC50 value.
Step 3: The formula for calculating the inhibition rate was: inh. (%)={fluorescence value of the blank group−fluorescence value of the test concentration group}/fluorescence value of the blank (DMSO) group.

[3] = 24 h co-incubation, up to 10 μM

IC50 ([1]; read-out: IC50 on NO secretion by BV-2): > 10 µM
IC50 ([1]; read-out: IC50 on NO secretion by BV-2 (text of b102)): > 10 µM
IC50 ([2]; Mus musculus, BV-2, 24 h co-incubation): > 10 µM
Structure (SMILES): CCc1cc(/C(C)=N/OCc2ccc(C3CCCCC3)c(C(F)(F)F)c2)ccc1CN1CC(C(=O)O)C1 [Siponimod, reference compound]
Maximum inhibition rate on NO secretion by BV-2 [1, 3]: 7.71%
Maximum inhibition rate on CCL5 secretion by BV-2 [2, 3]: 35.16%
inhibitory effect on cell proliferation (BV-2 cells; 24 h co-incubation with BV-2, highest test concentration 10 μM): no significant inhibitory effect on cell proliferation
inhibition at up to 10 µM (BV-2 cells; Mus musculus, BV-2, 24 h co-incubation, LPS/IFN-γ, highest concentration 10 μM, read-out: Maximum inhibition rate on BV-2 cell proliferation): 4.44%
